Results as given in BindingDB's records for PubMed 8996189 (Pfizer, 1997).

Columns and labels:
Adenosine receptor A1 [1] = target: T1, Adenosine receptor A1 (Oryctolagus cuniculus, UniProt P34970)
T1 sequence (P34970 whole entry): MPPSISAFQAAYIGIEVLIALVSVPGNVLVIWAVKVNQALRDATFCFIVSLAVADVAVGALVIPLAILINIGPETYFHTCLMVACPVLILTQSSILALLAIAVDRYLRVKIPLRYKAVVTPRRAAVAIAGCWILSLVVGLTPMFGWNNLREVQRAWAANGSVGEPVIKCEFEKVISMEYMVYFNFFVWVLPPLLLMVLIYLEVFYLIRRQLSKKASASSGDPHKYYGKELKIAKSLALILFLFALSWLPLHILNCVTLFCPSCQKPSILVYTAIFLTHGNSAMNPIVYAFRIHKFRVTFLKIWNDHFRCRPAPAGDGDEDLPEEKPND

Adenosine receptor A3 [2] = target: T2, Adenosine receptor A3 (Oryctolagus cuniculus, UniProt O02667)
T2 sequence (O02667 whole entry): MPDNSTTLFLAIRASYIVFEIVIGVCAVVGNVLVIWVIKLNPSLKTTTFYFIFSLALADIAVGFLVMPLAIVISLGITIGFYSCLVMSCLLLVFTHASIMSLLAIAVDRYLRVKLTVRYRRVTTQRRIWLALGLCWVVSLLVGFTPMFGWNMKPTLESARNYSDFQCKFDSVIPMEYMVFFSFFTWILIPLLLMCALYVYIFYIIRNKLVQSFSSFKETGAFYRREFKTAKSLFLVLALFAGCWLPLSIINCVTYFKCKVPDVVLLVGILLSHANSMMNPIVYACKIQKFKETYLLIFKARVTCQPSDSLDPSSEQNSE

Adenosine receptor A3 [3] = target: T3, Adenosine receptor A3 (Ovis aries, UniProt P35342)
T3 sequence (P35342 whole entry): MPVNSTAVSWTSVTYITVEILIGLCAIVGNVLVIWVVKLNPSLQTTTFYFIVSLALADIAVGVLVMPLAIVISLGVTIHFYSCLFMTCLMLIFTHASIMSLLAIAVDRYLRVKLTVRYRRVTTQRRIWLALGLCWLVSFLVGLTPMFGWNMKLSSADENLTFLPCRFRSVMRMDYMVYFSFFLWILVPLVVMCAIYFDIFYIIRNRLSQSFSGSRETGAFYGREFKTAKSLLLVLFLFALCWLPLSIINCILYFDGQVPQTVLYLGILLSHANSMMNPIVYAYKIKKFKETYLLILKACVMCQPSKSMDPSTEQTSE

Adenosine receptor A1 [4] = target: T4, Adenosine receptor A1 (Homo sapiens, UniProt P30542)
T4 sequence (P30542 whole entry): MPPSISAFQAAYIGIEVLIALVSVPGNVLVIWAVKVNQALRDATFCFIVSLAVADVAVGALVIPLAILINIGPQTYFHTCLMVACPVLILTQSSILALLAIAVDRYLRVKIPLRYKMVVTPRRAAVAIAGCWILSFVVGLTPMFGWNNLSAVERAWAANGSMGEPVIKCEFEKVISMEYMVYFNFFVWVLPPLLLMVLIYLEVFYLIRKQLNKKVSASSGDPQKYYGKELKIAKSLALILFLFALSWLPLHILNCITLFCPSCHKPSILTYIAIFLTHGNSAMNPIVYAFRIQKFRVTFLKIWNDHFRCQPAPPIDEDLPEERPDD

Adenosine receptor A3 [5] = target: T5, Adenosine receptor A3 (Homo sapiens, UniProt P0DMS8)
T5 sequence (P0DMS8 whole entry): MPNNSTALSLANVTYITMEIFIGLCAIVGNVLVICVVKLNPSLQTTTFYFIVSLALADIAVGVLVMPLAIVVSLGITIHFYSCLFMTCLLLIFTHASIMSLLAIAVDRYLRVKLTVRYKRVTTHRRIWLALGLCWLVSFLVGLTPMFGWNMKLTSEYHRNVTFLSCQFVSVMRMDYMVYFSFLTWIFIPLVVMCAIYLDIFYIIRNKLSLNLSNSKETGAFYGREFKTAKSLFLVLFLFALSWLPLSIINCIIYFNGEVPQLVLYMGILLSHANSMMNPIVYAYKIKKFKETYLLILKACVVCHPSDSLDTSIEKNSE

In the case of CNC(=O)C1OC(n2cnc3c(NCc4cccc(I)c4)ncnc32)C(O)C1O (stereo not drawn) [3,4-dihydroxy-5-(6-{[(3-iodophenyl)methyl]amino}-9H-purin-9-yl)-N-methyloxolane-2-carboxamide], the Ki (Adenosine receptor A1 [1]) is reported as 30 nM.

In the case of CCCn1c(=O)c2[nH]c(C3CCCC3)nc2n(CCC)c1=O [DPCPX], the Ki (Adenosine receptor A3 [2]) is reported as 1120 nM.

CC(Cc1ccccc1)Nc1ncnc2c1ncn2C1OC(CO)C(O)C1O (stereo not drawn) [R-N6-(2-phenylisopropyl) adenosine] was tested, and the Ki (Adenosine receptor A3 [2]) was 49 nM.

Nc1ccc(CNc2ncnc3c2ncn3[C@@H]2O[C@H](CO)[C@@H](O)[C@H]2O)cc1I [IABA] gave a Ki (Adenosine receptor A1 [1]) of 4 nM and a Ki (Adenosine receptor A3 [2]) of 5 nM.

Cn1c(=O)c2[nH]c(-c3ccc(S(=O)(=O)O)cc3)nc2n(C)c1=O [4-(1,3-Dimethyl-2,6-dioxo-2,3,6,7-tetrahydro-1H-purin-8-yl)-benzenesulfonic acid] was tested, and the Ki (Adenosine receptor A3 [2]) was over 10000 nM.

Work on OC[C@H]1O[C@@H](n2cnc3c(NC4CCCC4)ncnc32)[C@H](O)[C@@H]1O yielded a Ki (Adenosine receptor A3 [2]) of 49 nM.

With CCNC(=O)[C@H]1O[C@@H](n2cnc3c(N)ncnc32)[C@H](O)[C@@H]1O the Ki (Adenosine receptor A1 [1]) was 2 nM and the Ki (Adenosine receptor A3 [2]) was 27 nM.

In the case of CCCn1c(=O)c2[nH]c(-c3ccc(C=CC(=O)O)cc3)nc2n(CCC)c1=O [NSC_129447], the Ki (Adenosine receptor A3 [3]) is reported as 21 nM, the Ki (Adenosine receptor A1 [1]) is reported as 3 nM and the Ki (Adenosine receptor A1 [4]) is reported as 120 nM. It also gave a Ki (Adenosine receptor A3 [5]) of 40 nM and a Ki (Adenosine receptor A3 [2]) of 746 nM.

Nc1ccc(CCNc2ncnc3c2ncn3C2OC(CO)C(O)C2O)cc1 (stereo not drawn) [ChEMBL_198532] showed a Ki (Adenosine receptor A1 [1]) of 6 nM and a Ki (Adenosine receptor A3 [2]) of 47 nM.

CCCn1c(=O)c2[nH]c(-c3ccc(OCC(=O)NCCN)cc3)nc2n(CCC)c1=O [N-(2-Amino-ethyl)-2-[4-(2,6-dioxo-1,3-dipropyl-2,3,6,9-tetrahydro-1H-purin-8-yl)-phenoxy]-acetamide] was tested, and the Ki (Adenosine receptor A1 [1]) was 5 nM and the Ki (Adenosine receptor A3 [2]) was 329 nM.
